The values below come from publication PMC3691018 (Bioorganic & medicinal chemistry letters, 2013).

Experiment [1] concerns the target Bacillus anthracis DNA replicative helicase (Bacillus anthracis, UniProt A0A0J1HKT7). Nature of the experiment: biochemical. The experiment is classed as biochemical.
The test system of the next experiment is HeLa. It counts as cell-based.

Regarding `COc1cccc(C(=O)Nc2nc3ccc4nc(NC5CCCCC5)sc4c3s2)c1` [Compound 53], in experiment [1], the “Activity vs B. anthracis helicase (in words)” value is on record as “significantly reduced activity”. In the case of `CNc1nc2ccc3nc(NC(=O)c4cc(OC)c(OC)c(OC)c4)sc3c2s1` [Compound 59], in the experiment on HeLa, the “Selectivity index (SI = CC50/IC50)” value is listed as “greater than 500”. On to `COc1cccc(C(=O)Nc2nc3ccc4nc(NCC(C)C)sc4c3s2)c1` [Compound 52], for which the “Activity vs B. anthracis helicase (in words)” value in experiment [1] is reported as “modest inhibition”. On the same count and under the same terms, the value for `COc1cccc(C(=O)Nc2nc3ccc4nc(NC(C)C)sc4c3s2)c1` [Compound 51] was “significantly reduced activity”. A word on the IC50: it is the concentration needed to halve the response being measured. Lower therefore signals inhibition by little substance. Regarding `COc1cc(/C=N/c2nc3ccc4nc(SC)sc4c3s2)cc(OC)c1OC` [Compound 65], in experiment [1], the “Activity vs B. anthracis helicase (in words)” value is listed as “lost activities” and the IC50 is over 100 µM. For `COc1cccc(C(=O)Nc2nc3ccc4nc(NCc5ccccc5)sc4c3s2)c1` [Compound 54], in experiment [1], the “Activity vs B. anthracis helicase (in words)” value is reported as “significantly reduced activity”. On to `COc1cc(CNc2nc3ccc4nc(SC)sc4c3s2)cc(OC)c1OC` [Compound 64], for which, in experiment [1], the “Activity vs B. anthracis helicase (in words)” value is listed as “lost activities” and the IC50 is over 100 µM.
